Test results reported in ChEMBL document CHEMBL1139643, “Cell differentiation inducers derived from thalidomide” (2005).

What was measured:
Format in all cases: functional
HL-60 [1] = assay: Percent cell proliferation of human leukemia cell line HL-60 at 1*E-5 M
HL-60 [2] = assay: NBT positivity against human leukemia cell line HL-60 at 1*E-5 M
HL-60 [3] = assay: NBT positivity against human leukemia cell line HL-60 at 1*E-6 M
HL-60 [4] = assay: Percent cell proliferation of human leukemia cell line HL-60 at 3*E-6 M
HL-60 [5] = assay: NBT positivity against human leukemia cell line HL-60 at 5*E-6 M
HL-60 [6] = assay: NBT positivity against human leukemia cell line HL-60 at 3*E-6 M
HL-60 [7] = assay: Percent cell proliferation of human leukemia cell line HL-60 at 5*E-6 M
HL-60 [8] = assay: Percent cell proliferation of human leukemia cell line HL-60 at 1*E-6 M
HL-60 [9] = assay: NBT positivity against human leukemia cell line HL-60 at 1*E-8 M
HL-60 [10] = assay: Percent cell proliferation of human leukemia cell line HL-60 at 1*E-8 M
HL-60 [11] = assay: NBT positivity against human leukemia cell line HL-60 at 2*E-9 M
HL-60 [12] = assay: Percent cell proliferation of human leukemia cell line HL-60 at 2*E-9 M

Structure (SMILES) | Cell proliferation (HL-60 [1]) [%] | NBT positivity (HL-60 [2]) [%] | also measured
CC1(N2C(=O)c3ccc(N)cc3C2=O)CCC(=O)NC1=O (stereo not drawn) | 103 | 1 | 
CC1(N2C(=O)c3cccc(N)c3C2=O)CCC(=O)NC1=O (stereo not drawn) | 92 | 2 | 
CC(C)c1cccc(C(C)C)c1N1C(=O)c2ccc(O)cc2C1=O |  |  | NBT positivity (HL-60 [3]): 3%; Cell proliferation (HL-60 [4]): 43%; NBT positivity (HL-60 [5]): 55%; NBT positivity (HL-60 [6]): 8%; Cell proliferation (HL-60 [7]): 10%; Cell proliferation (HL-60 [8]): 94%
O=C1CCC(N2C(=O)c3ccccc3C2=O)C(=O)N1O (stereo not drawn) | 100 | 1 | 
CC(C)c1cccc(C(C)C)c1N1C(=O)c2cccc(O)c2C1=O | 76 | 3 | 
CC(C)c1cccc(C(C)C)c1N1C(=O)c2ccccc2C1=O | 24 | 9 | 
CC(C)c1cccc(C(C)C)c1N1C(=O)c2cccc(N)c2C1=O | 25 | 16 | Cell proliferation (HL-60 [4]): 73%; NBT positivity (HL-60 [6]): 2%
CC(C)c1cccc(C(C)C)c1N1C(=O)c2ccc(N)cc2C1=O | 53 | 5 | 
C=C1/C(=C\C=C2/CCC[C@]3(C)[C@@H]([C@H](C)CCCC(C)(C)O)CC[C@@H]23)C[C@@H](O)C[C@@H]1O [CALCITRIOL] |  |  | NBT positivity (HL-60 [9]): 39%; Cell proliferation (HL-60 [10]): 55%
O=C1CCC(N2C(=O)c3ccccc3C2=O)C(=O)N1 (stereo not drawn) [THALIDOMIDE] | 101 | 1 | 
CC1=C(/C=C/C(C)=C/C=C/C(C)=C/C(=O)O)C(C)(C)CCC1 [TRETINOIN] |  |  | NBT positivity (HL-60 [11]): 52%; Cell proliferation (HL-60 [12]): 45%
